Among the data in ChEMBL document CHEMBL5634158, “From garden to lab: C-3 chemical modifications of tomatidine unveil broad-spectrum ATP synthase inhibitors to combat bacterial resistance” (Eur J Med Chem, 2023) are MIC values, retold here.

For one assay, the system named is Staphylococcus aureus. The assay can be described thus: Antibacterial activity against Staphylococcus aureus ATCC 29213 assessed as reduction in microbial growth incubated for 20 hrs under aerobic condition by CLSI based broth microdilution method. It is filed as functional.
The test system of the next assay is Escherichia coli. Description: Antibacterial activity against Escherichia coli ATCC 25922 assessed as reduction in microbial growth incubated for 20 hrs under aerobic condition by CLSI based broth microdilution method. It is filed as functional.

As to `C[C@H]1CC[C@]2(NC1)O[C@H]1C[C@H]3[C@@H]4CC[C@H]5CC(NCc6ccccn6)CC[C@]5(C)[C@H]4CC[C@]3(C)[C@H]1[C@@H]2C` (mixture of isomers), the minimum inhibitory concentration (MIC) in the assay on Staphylococcus aureus and in the assay on Escherichia coli was more than 128 µg/mL in each case.

As to `C[C@H]1CC[C@]2(NC1)O[C@H]1C[C@H]3[C@@H]4CC[C@H]5CC(NCCNS(C)(=O)=O)CC[C@]5(C)[C@H]4CC[C@]3(C)[C@H]1[C@@H]2C` (mixture of isomers), the values for the minimal inhibitory concentration (MIC) in the assay on Staphylococcus aureus and with Escherichia coli were 32 µg/mL and more than 128 µg/mL, respectively.

As to `CCCC(N)(CCC)CNC1CC[C@@]2(C)[C@@H](CC[C@@H]3[C@@H]2CC[C@]2(C)[C@@H]4[C@H](C[C@@H]32)O[C@@]2(CC[C@H](C)CN2)[C@H]4C)C1` (mixture of isomers), the figures for the MIC in the assay with Staphylococcus aureus and with Escherichia coli were 8 µg/mL and more than 128 µg/mL, respectively.

As for `C[C@H]1CC[C@]2(NC1)O[C@H]1C[C@H]3[C@@H]4CC[C@H]5CC(NC[C@@H](N)Cc6cn(C)c7ccccc67)CC[C@]5(C)[C@H]4CC[C@]3(C)[C@H]1[C@@H]2C` (mixture of isomers), the values for the MIC in the assay on Staphylococcus aureus and with Escherichia coli were 2 µg/mL and 8 µg/mL, respectively.

On to `C[C@H]1CC[C@]2(NC1)O[C@H]1C[C@H]3[C@@H]4CC[C@H]5CC(NCCN(C)C)CC[C@]5(C)[C@H]4CC[C@]3(C)[C@H]1[C@@H]2C` (mixture of isomers), for which the minimum inhibitory concentration (MIC) in the assay on Staphylococcus aureus came out at 8 µg/mL; in the assay with Escherichia coli, 128 µg/mL.

With `C[C@H]1CC[C@]2(NC1)O[C@H]1C[C@H]3[C@@H]4CC[C@H]5CC(NC[C@H](N)Cc6ccccc6)CC[C@]5(C)[C@H]4CC[C@]3(C)[C@H]1[C@@H]2C` (mixture of isomers), the figures for the MIC in the assay on Staphylococcus aureus and in the assay on Escherichia coli were 4 µg/mL and 32 µg/mL, respectively.

With `C[C@H]1CC[C@]2(NC1)O[C@H]1C[C@H]3[C@@H]4CC[C@H]5CC(N[C@H]6CCCC[C@@H]6N)CC[C@]5(C)[C@H]4CC[C@]3(C)[C@H]1[C@@H]2C` (mixture of isomers), the minimal inhibitory concentration (MIC) is 8 µg/mL with Staphylococcus aureus and more than 128 µg/mL with Escherichia coli.

Consider `C[C@H]1CC[C@]2(NC1)O[C@H]1C[C@H]3[C@@H]4CC[C@H]5CC(NCCO)CC[C@]5(C)[C@H]4CC[C@]3(C)[C@H]1[C@@H]2C` (mixture of isomers), for which the MIC with Staphylococcus aureus and in the assay on Escherichia coli was more than 128 µg/mL in each case.

On to `C[C@H]1CC[C@]2(NC1)O[C@H]1C[C@H]3[C@@H]4CC[C@H]5CC(NCc6ccc(O)cc6)CC[C@]5(C)[C@H]4CC[C@]3(C)[C@H]1[C@@H]2C` (mixture of isomers), for which the MIC is 8 µg/mL with Staphylococcus aureus and more than 128 µg/mL with Escherichia coli.

On to `C[C@H]1CC[C@]2(NC1)O[C@H]1C[C@H]3[C@@H]4CC[C@H]5CC(NC[C@@H](N)Cc6ccc([N+](=O)[O-])cc6)CC[C@]5(C)[C@H]4CC[C@]3(C)[C@H]1[C@@H]2C` (mixture of isomers), for which the results for the MIC in the assay on Staphylococcus aureus and with Escherichia coli were 2 µg/mL and 64 µg/mL, respectively.

Consider `C[C@H]1CC[C@]2(NC1)O[C@H]1C[C@H]3[C@@H]4CC[C@H]5CC(NC[C@@H](N)Cc6cccc(Br)c6)CC[C@]5(C)[C@H]4CC[C@]3(C)[C@H]1[C@@H]2C` (mixture of isomers), for which the MIC was determined as 2 µg/mL in the assay on Staphylococcus aureus and 8 µg/mL in the assay on Escherichia coli.

For the molecule `C[C@H]1CC[C@]2(NC1)O[C@H]1C[C@H]3[C@@H]4CC[C@H]5CC(NC[C@H](N)CCc6ccccc6)CC[C@]5(C)[C@H]4CC[C@]3(C)[C@H]1[C@@H]2C` (stereo partly specified), the MIC in the assay on Staphylococcus aureus was determined as 4 µg/mL; with Escherichia coli, 32 µg/mL.

For the molecule `C[C@H]1CC[C@]2(NC1)O[C@H]1C[C@H]3[C@@H]4CC[C@H]5CC(NC[C@@H](N)Cc6c[nH]cn6)CC[C@]5(C)[C@H]4CC[C@]3(C)[C@H]1[C@@H]2C` (mixture of isomers), the MIC in the assay with Staphylococcus aureus was found to be 8 µg/mL; in the assay on Escherichia coli, 32 µg/mL.

Take `C[C@H]1CC[C@]2(NC1)O[C@H]1C[C@H]3[C@@H]4CC[C@H]5CC(NC[C@@H](N)Cc6ccccc6Br)CC[C@]5(C)[C@H]4CC[C@]3(C)[C@H]1[C@@H]2C` (mixture of isomers): the minimum inhibitory concentration (MIC) turned out to be 4 µg/mL with Staphylococcus aureus and 32 µg/mL in the assay on Escherichia coli.

Regarding `C[C@H]1CC[C@]2(NC1)O[C@H]1C[C@H]3[C@@H]4CC[C@H]5CC(NCCN6CCNC6=O)CC[C@]5(C)[C@H]4CC[C@]3(C)[C@H]1[C@@H]2C` (mixture of isomers), the MIC in the assay with Staphylococcus aureus was 64 µg/mL; with Escherichia coli it was more than 128 µg/mL.

For the molecule `C[C@H]1CC[C@]2(NC1)O[C@H]1C[C@H]3[C@@H]4CC[C@H]5CC(NCCNC(=N)N)CC[C@]5(C)[C@H]4CC[C@]3(C)[C@H]1[C@@H]2C` (mixture of isomers), the figures for the minimal inhibitory concentration (MIC) with Staphylococcus aureus and in the assay with Escherichia coli were 8 µg/mL and 64 µg/mL, respectively.

`C[C@H]1CC[C@]2(NC1)O[C@H]1C[C@H]3[C@@H]4CC[C@H]5CC(NC[C@@H](N)Cc6cccnc6)CC[C@]5(C)[C@H]4CC[C@]3(C)[C@H]1[C@@H]2C` (mixture of isomers): the minimal inhibitory concentration (MIC) was 16 µg/mL in the assay with Staphylococcus aureus and more than 128 µg/mL in the assay on Escherichia coli.

In the case of `C[C@H]1CC[C@]2(NC1)O[C@H]1C[C@H]3[C@@H]4CC[C@H]5CC(NC[C@@H](C)N)CC[C@]5(C)[C@H]4CC[C@]3(C)[C@H]1[C@@H]2C` (mixture of isomers), the minimal inhibitory concentration (MIC) with Staphylococcus aureus worked out at 4 µg/mL; in the assay with Escherichia coli, 64 µg/mL.

Regarding `C[C@H]1CC[C@]2(NC1)O[C@H]1C[C@H]3[C@@H]4CC[C@H]5CC(NCc6cn(C)cn6)CC[C@]5(C)[C@H]4CC[C@]3(C)[C@H]1[C@@H]2C` (mixture of isomers), the minimal inhibitory concentration (MIC) in the assay with Staphylococcus aureus is 32 µg/mL; in the assay with Escherichia coli, more than 128 µg/mL.

For `COC(=O)CNC1CC[C@@]2(C)[C@@H](CC[C@@H]3[C@@H]2CC[C@]2(C)[C@@H]4[C@H](C[C@@H]32)O[C@@]2(CC[C@H](C)CN2)[C@H]4C)C1` (mixture of isomers), the MIC in the assay on Staphylococcus aureus and with Escherichia coli was more than 128 µg/mL throughout.

Consider `C[C@H]1CC[C@]2(NC1)O[C@H]1C[C@H]3[C@@H]4CC[C@H]5CC(NC[C@@H](N)C(c6ccccc6)c6ccccc6)CC[C@]5(C)[C@H]4CC[C@]3(C)[C@H]1[C@@H]2C` (mixture of isomers), for which the minimum inhibitory concentration (MIC) was 4 µg/mL in the assay with Staphylococcus aureus and more than 64 µg/mL in the assay with Escherichia coli.

On to `C[C@H]1CC[C@]2(NC1)O[C@H]1C[C@H]3[C@@H]4CC[C@H]5CC(NC[C@@H](N)CC6CCCCC6)CC[C@]5(C)[C@H]4CC[C@]3(C)[C@H]1[C@@H]2C` (mixture of isomers), for which the results for the MIC in the assay on Staphylococcus aureus and in the assay with Escherichia coli were 4 µg/mL and 16 µg/mL, respectively.

For the molecule `C[C@H]1CC[C@]2(NC1)O[C@H]1C[C@H]3[C@@H]4CC[C@H]5CC(NCc6ccco6)CC[C@]5(C)[C@H]4CC[C@]3(C)[C@H]1[C@@H]2C` (mixture of isomers), the MIC with Staphylococcus aureus was 32 µg/mL; in the assay with Escherichia coli it was more than 128 µg/mL.
